Patent US7601746B2 (Shionogi & Co., Ltd., priority 2003, dated 2009)

Target: T1, human TPO receptor (hTPOR) (Homo sapiens, UniProt P40238)
T1 construct: expressed in transfected cells; host or cells: BaF-B03 (murine IL-3 dependent cell line)
T1 sequence (P40238 26-635): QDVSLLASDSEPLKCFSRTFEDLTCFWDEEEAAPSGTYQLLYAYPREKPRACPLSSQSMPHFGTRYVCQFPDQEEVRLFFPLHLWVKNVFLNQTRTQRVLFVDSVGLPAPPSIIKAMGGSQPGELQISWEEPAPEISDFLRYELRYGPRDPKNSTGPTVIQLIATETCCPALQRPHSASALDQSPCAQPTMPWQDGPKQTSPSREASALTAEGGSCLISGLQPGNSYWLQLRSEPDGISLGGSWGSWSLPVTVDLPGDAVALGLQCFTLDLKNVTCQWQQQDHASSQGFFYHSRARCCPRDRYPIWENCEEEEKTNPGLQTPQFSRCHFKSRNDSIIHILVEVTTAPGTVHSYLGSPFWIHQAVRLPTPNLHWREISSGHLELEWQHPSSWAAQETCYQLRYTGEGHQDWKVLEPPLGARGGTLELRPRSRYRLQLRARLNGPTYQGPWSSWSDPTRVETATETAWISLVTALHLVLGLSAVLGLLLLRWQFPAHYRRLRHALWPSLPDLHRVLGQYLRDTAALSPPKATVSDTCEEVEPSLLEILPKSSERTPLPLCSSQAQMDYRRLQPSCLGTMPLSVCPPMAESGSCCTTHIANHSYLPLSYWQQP
Test: Thrombopoietic activity: proliferation of TPO dependent BaF/hTPOR cells (WST-1, absorbance at 450 nm)
Type: cell-based
Details: 20 h + 4 h WST-1, ED50 = half concentration of the concentration showing the maximum thrombopoietic activity, Table 1
Method in brief: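 Proliferation read-out: WST-1 absorbance at 450 nm after 20 h compound exposure plus 4 h reagent, using IL-3-deprived BaF/hTPOR cells (5×10^4 per well) dependent on human TPO receptor signalling. ED50 defined as half the concentration producing maximal activity.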

Row | SMILES | EC50
1 | CCCCCCOC(C)c1cccc(-c2csc(NC(=O)c3cc(Cl)c(C=C(C)C(=O)O)c(Cl)c3)n2)c1F (stereo not shown) [Compound B99, 3-(2,6-dichloro-4-{4-[2-fluoro-3-(1-n-hexyloxyethyl)phenyl]thiazol-2-ylcarbamoyl)phenyl]-2-methylacrylic acid] | 0.59 nM
2 | CCCCCCCCCC(OC)c1cccc(-c2csc(NC(=O)c3cc(F)c(/C=C(\C)C(=O)O)c(F)c3)n2)c1OC (stereo not shown) [Compound B354, (E)-3-(2,6-difluoro-4-{4-[2-methyloxy-3-(1-methyloxydecyl)phenyl]thiazol-2-ylcarbamoyl}phenyl)-2-methylacrylic acid] | 3.2 nM
3 | CCCCCCCCCCC(OC)c1cccc(-c2csc(NC(=O)c3cc(F)c(/C=C(\C)C(=O)O)c(F)c3)n2)c1OC (stereo not shown) [Compound B355, (E)-3-(2,6-difluoro-4-{4-[2-methyloxy-3-(1-methyloxyundecyl)phenyl]thiazol-2-ylcarbamoyl}phenyl)-2-methylacrylic acid] | 3.3 nM
4 | CCCOCCCc1cccc(-c2csc(NC(=O)c3cc(F)c(/C=C(\C)C(=O)O)c(F)c3)n2)c1OC [Compound B380, (E)-3-(2,6-difluoro-4-{4-[2-methyloxy-3-(3-propyloxypropyl)phenyl]thiazol-2-ylcarbamoyl}phenyl)-2-methylacrylic acid] | 23.2 nM
5 | COc1c(COCCCC2CCCCC2)cccc1-c1csc(NC(=O)c2cc(F)c(/C=C(\C)C(=O)O)c(F)c2)n1 [Compound B397] | 2.52 nM
6 | CCCCOC(CC)c1cccc(-c2csc(NC(=O)c3cc(F)c(/C=C(\C)C(=O)O)c(F)c3)n2)c1OC (stereo not shown) [Compound B418, (E)-3-(4-{4-[3-(1-butyloxypropyl)-2-methyloxyphenyl]thiazol-2-ylcarbamoyl}-2,6-difluorophenyl)-2-methylacrylic acid] | 6.3 nM
7 | CCCCOCCCc1cccc(-c2csc(NC(=O)c3cc(F)c(/C=C(\C)C(=O)O)c(F)c3)n2)c1OC [Compound B419, (E)-3-(4-{4-[3-(3-butyloxypropyl)-2-methyloxyphenyl]thiazol-2-ylcarbamoyl}-2,6-difluorophenyl)-2-methylacrylic acid] | 14.6 nM
8 | CCCCCOC(c1cccc(-c2csc(NC(=O)c3cc(F)c(/C=C(\C)C(=O)O)c(F)c3)n2)c1OC)C1CCCCC1 (stereo not shown) [Compound B484] | 1.29 nM
9 | CCCCCCOC(c1cccc(-c2csc(NC(=O)c3cc(F)c(/C=C(\C)C(=O)O)c(F)c3)n2)c1OC)C1CCCCC1 (stereo not shown) [Compound B519] | 1.03 nM
10 | COc1c(CCCOCCC(C)(C)C)cccc1-c1csc(NC(=O)c2cc(F)c(/C=C(\C)C(=O)O)c(F)c2)n1 [Compound B521, (E)-3-[4-(4-{3-[3-(3,3-dimethylbutyloxy)propyl]-2-methyloxyphenyl}thiazol-2-ylcarbamoyl}-2,6-difluorophenyl)-2-methylacrylic acid] | 16.9 nM
11 | COc1c(-c2csc(NC(=O)c3cc(Cl)c(/C=C(\C)C(=O)O)c(Cl)c3)n2)cccc1C(CC(C)(C)C)OC (stereo not shown) [Compound B1054, (E)-3-(2,6-dichloro-4-{4-[2-methyloxy-3-(1-methyloxy-3,3-dimethylbutyl)phenyl]thiazol-2-ylcarbamoyl}phenyl)-2-methylacrylic acid] | 19.9 nM
12 | CCCOC(c1cccc(-c2csc(NC(=O)c3cc(Cl)c(/C=C(\C)C(=O)O)c(Cl)c3)n2)c1OC)C1CCCCC1 (stereo not shown) [Compound B1102] | 2.86 nM
13 | CCCCOC(C)c1cccc(-c2csc(NC(=O)c3cc(Cl)c(/C=C(\C)C(=O)O)c(Cl)c3)n2)c1OC (stereo not shown) [Compound B1122, (E)-3-(4-{4-[3-(1-butyloxyethyl)-2-methyloxyphenyl]thiazol-2-ylcarbamoyl}-2,6-dichlorophenyl)-2-methylacrylic acid] | 8.25 nM
14 | CCCCOCCCc1cccc(-c2csc(NC(=O)c3cc(Cl)c(/C=C(\C)C(=O)O)c(Cl)c3)n2)c1OC [Compound B1124, (E)-3-(4-{4-[3-(3-butyloxypropyl)-2-methyloxyphenyl]thiazol-2-ylcarbamoyl}-2,6-dichlorophenyl)-2-methylacrylic acid] | 15.8 nM
15 | CCCCCCCCCC(OC)c1cccc(-c2csc(NC(=O)c3cc(Cl)c(/C=C(\OC)C(=O)O)c(Cl)c3)n2)c1OC (stereo not shown) [Compound B1437, (Z)-3-(2,6-dichloro-4-{4-[2-methyloxy-3-(1-methyloxydecyl)phenyl]thiazol-2-ylcarbamoyl}phenyl)-2-methyloxyacrylic acid] | 6.5 nM

Other lines, results leading:

Row | EC50 | SMILES
16 | 0.68 nM | CCCCOCCCC(OCCCC)c1cccc(-c2csc(NC(=O)c3cc(Cl)c(C=C(C)C(=O)O)c(Cl)c3)n2)c1F (stereo not shown) [Compound B100, 3-(4-{4-[3-(1,4-dibutyloxybutyl)-2-fluorophenyl]thiazol-2-ylcarbamoyl)-2,6-dichlorophenyl]-2-methylacrylic acid]
17 | 1.9 nM | CCCCCCOCCC(OC)c1cccc(-c2csc(NC(=O)c3cc(Cl)c(C=C(C)C(=O)O)c(Cl)c3)n2)c1F (stereo not shown) [Compound B101, 3-(2,6-dichloro-4-{4-[2-fluoro-3-(3-n-hexyloxy-1-methyloxypropyl)phenyl]thiazol-2-ylcarbamoyl)phenyl]-2-methylacrylic acid]
18 | 18.7 nM | CCCCCC(OC)c1cccc(-c2csc(NC(=O)c3cc(F)c(/C=C(\C)C(=O)O)c(F)c3)n2)c1OC (stereo not shown) [Compound B347, (E)-3-(2,6-difluoro-4-{4-[2-methyloxy-3-(1-methyloxyhexyl)phenyl]thiazol-2-ylcarbamoyl}phenyl)-2-methylacrylic acid]
19 | 16.8 nM | COc1c(-c2csc(NC(=O)c3cc(F)c(/C=C(\C)C(=O)O)c(F)c3)n2)cccc1C(CC(C)(C)C)OC (stereo not shown) [Compound B349, (E)-3-(2,6-difluoro-4-{4-[2-methyloxy-3-(1-methyloxy-3,3-dimethylbutyl)phenyl]thiazol-2-ylcarbamoyl}phenyl)-2-methylacrylic acid]
20 | 2.01 nM | CCCCOC(c1cccc(-c2csc(NC(=O)c3cc(F)c(/C=C(\C)C(=O)O)c(F)c3)n2)c1OC)C(C)(C)C (stereo not shown) [Compound B425, (E)-3-(4-{4-[3-(1-butyloxy-2,2-dimethylpropyl)-2-methyloxyphenyl]thiazol-2-ylcarbamoyl}-2,6-difluorophenyl)-2-methylacrylic acid]
21 | 15.9 nM | COc1c(CCCOCC(C)(C)C)cccc1-c1csc(NC(=O)c2cc(F)c(/C=C(\C)C(=O)O)c(F)c2)n1 [Compound B488]
22 | 12 nM | CCCCCCOCCCc1cccc(-c2csc(NC(=O)c3cc(F)c(/C=C(\C)C(=O)O)c(F)c3)n2)c1OC [Compound B505, (E)-3-(2,6-difluoro-4-{4-[3-(3-hexyloxypropyl)-2-methyloxyphenyl]thiazol-2-ylcarbamoyl}phenyl)-2-methylacrylic acid]
23 | 3.2 nM | CCCCCCCCCC(OC)c1cccc(-c2csc(NC(=O)c3cc(Cl)c(/C=C(\C)C(=O)O)c(Cl)c3)n2)c1OC (stereo not shown) [Compound B1059, (E)-3-(2,6-dichloro-4-{4-[2-methyloxy-3-(1-methyloxydecyl)phenyl]thiazol-2-ylcarbamoyl}phenyl)-2-methylacrylic acid]
24 | 3.9 nM | CCCCCCCCCCC(OC)c1cccc(-c2csc(NC(=O)c3cc(Cl)c(/C=C(\C)C(=O)O)c(Cl)c3)n2)c1OC (stereo not shown) [Compound B1060, (E)-3-(2,6-dichloro-4-{4-[2-methyloxy-3-(1-methyloxy-undecyl)phenyl]thiazol-2-ylcarbamoyl}phenyl)-2-methylacrylic acid]

Same assay, conditions: 20 h + 4 h WST-1, ED50 = half concentration of the concentration showing the maximum thrombopoietic activity, Table 2

Row | EC50 | SMILES
25 | 23.2 nM | CCCOCCCc1cccc(-c2csc(NC(=O)c3cc(F)c(/C=C(\C)C(=O)O)c(F)c3)n2)c1OC [Compound B380, (E)-3-(2,6-difluoro-4-{4-[2-methyloxy-3-(3-propyloxypropyl)phenyl]thiazol-2-ylcarbamoyl}phenyl)-2-methylacrylic acid]
